In patent US11019818B2, “Herbicidal 3-substituted lactams” (FMC Corporation, priority 2017, dated 2021):

Columns and labels:
Format in all cases: in vivo
[1] = system: ryegrass, Italian (Italian ryegrass, Lolium multiflorum); assay: Test A postemergence, Italian ryegrass; settings: 0 to 100 scale (0 no effect, 100 complete control), approx. 10 d
Description: (§1) Seeds of plant species selected from barnyardgrass (Echinochloa crus-galli), kochia (Kochia scoparia), ragweed (common ragweed, Ambrosia elatior), ryegrass, Italian (Italian ryegrass, Lolium multiflorum), foxtail, green (green foxtail, Setaria viridis), and pigweed (Amaranthus retroflexus) were planted into a blend of loam soil and sand and treated preemergence with a directed soil spray using test chemicals formulated in a non-phytotoxic solvent mixture which included a surfactant. At the same time, plants selected from these weed species and also wheat (Triticum aestivum), corn (Zea mays), blackgrass (Alopecurus myosuroides), and galium (catchweed bedstraw, Galium aparine) were planted in pots containing the same blend of loam soil and sand and treated with postemergence applications of test chemicals formulated in the same manner. Plants ranged in height from 2 to 10 cm and were in the one- to two-leaf stage for the postemergence treatment. Treated plants and untreated controls were maintained in a greenhouse for approximately 10 d, after which time all treated plants were compared to untreated controls and visually evaluated for injury. Plant response ratings, summarized in Table A, are based on a 0 to 100 scale where 0 is no effect and 100 is complete control. A dash (-) response means no test result.

[2] = system: foxtail, green (green foxtail, Setaria viridis); assay: Test A preemergence, green foxtail; settings: 0 to 100 scale (0 no effect, 100 complete control), approx. 10 d
Description: as §1

[3] = system: ragweed (common ragweed, Ambrosia elatior); assay: Test A preemergence, ragweed; settings: 0 to 100 scale (0 no effect, 100 complete control), approx. 10 d
Description: as §1

[4] = system: sedge, umbrella (small-flower umbrella sedge, Cyperus difformis); assay: Test B flooded paddy test, umbrella sedge; settings: Flood, 250 g ai/ha; applied to paddy water at 2-leaf stage; visual rating after 13 to 15 d; scale 0 to 100, 0 is no effect, 100 is complete control
Procedure: (§2) Plant species in the flooded paddy test selected from rice (Oryza sativa), sedge, umbrella (small-flower umbrella sedge, Cyperus difformis), ducksalad (Heteranthera limosa), and barnyardgrass (Echinochloa crus-galli) were grown to the 2-leaf stage for testing. At time of treatment, test pots were flooded to 3 cm above the soil surface, treated by application of test compounds directly to the paddy water, and then maintained at that water depth for the duration of the test. Treated plants and controls were maintained in a greenhouse for 13 to 15 d, after which time all species were compared to controls and visually evaluated. Plant response ratings, summarized in Table B, are based on a scale of 0 to 100 where 0 is no effect and 100 is complete control. A dash (-) response means no test result.

[5] = system: barnyardgrass (Echinochloa crus-galli); assay: Test A preemergence, barnyardgrass; settings: 0 to 100 scale (0 no effect, 100 complete control), approx. 10 d
Description: as §1

[6] = system: wheat (Triticum aestivum); assay: Test A postemergence, wheat; settings: 0 to 100 scale (0 no effect, 100 complete control), approx. 10 d
Description: as §1

rice (Oryza sativa) = assay: Test B flooded paddy test, rice; settings: Flood, 250 g ai/ha; applied to paddy water at 2-leaf stage; visual rating after 13 to 15 d; scale 0 to 100, 0 is no effect, 100 is complete control
Procedure: as §2

[7] = system: blackgrass (Alopecurus myosuroides); assay: Test A postemergence, blackgrass; settings: 0 to 100 scale (0 no effect, 100 complete control), approx. 10 d
Description: as §1

[8] = system: ducksalad (Heteranthera limosa); assay: Test B flooded paddy test, ducksalad; settings: Flood, 250 g ai/ha; applied to paddy water at 2-leaf stage; visual rating after 13 to 15 d; scale 0 to 100, 0 is no effect, 100 is complete control
Procedure: as §2

[9] = system: pigweed (Amaranthus retroflexus); assay: Test A preemergence, pigweed; settings: 0 to 100 scale (0 no effect, 100 complete control), approx. 10 d
Description: as §1

[10] = system: galium (catchweed bedstraw, Galium aparine); assay: Test A postemergence, galium; settings: 0 to 100 scale (0 no effect, 100 complete control), approx. 10 d
Description: as §1

[11] = system: ryegrass, Italian (Italian ryegrass, Lolium multiflorum); assay: Test A preemergence, Italian ryegrass; settings: 0 to 100 scale (0 no effect, 100 complete control), approx. 10 d
Description: as §1

[12] = system: foxtail, green (green foxtail, Setaria viridis); assay: Test A postemergence, green foxtail; settings: 0 to 100 scale (0 no effect, 100 complete control), approx. 10 d
Description: as §1

kochia (Kochia scoparia) [13] = assay: Test A preemergence, kochia; settings: 0 to 100 scale (0 no effect, 100 complete control), approx. 10 d
Description: as §1

corn (Zea mays) = assay: Test A postemergence, corn; settings: 0 to 100 scale (0 no effect, 100 complete control), approx. 10 d
Description: as §1

kochia (Kochia scoparia) [14] = assay: Test A postemergence, kochia; settings: 0 to 100 scale (0 no effect, 100 complete control), approx. 10 d
Description: as §1

[15] = system: barnyardgrass (Echinochloa crus-galli); assay: Test B flooded paddy test, barnyardgrass; settings: Flood, 250 g ai/ha; applied to paddy water at 2-leaf stage; visual rating after 13 to 15 d; scale 0 to 100, 0 is no effect, 100 is complete control
Procedure: as §2

[16] = system: barnyardgrass (Echinochloa crus-galli); assay: Test A postemergence, barnyardgrass; settings: 0 to 100 scale (0 no effect, 100 complete control), approx. 10 d
Description: as §1

[17] = system: ragweed (common ragweed, Ambrosia elatior); assay: Test A postemergence, ragweed; settings: 0 to 100 scale (0 no effect, 100 complete control), approx. 10 d
Description: as §1

[18] = system: pigweed (Amaranthus retroflexus); assay: Test A postemergence, pigweed; settings: 0 to 100 scale (0 no effect, 100 complete control), approx. 10 d
Description: as §1

| Compound | Plant response rating, Ryegrass, Italian ([1]; 31 g ai/ha) | Plant response rating, Ryegrass, Italian ([1]; 125 g ai/ha) | Plant response rating, Foxtail, Green ([2]; 31 g ai/ha) | Plant response rating, Foxtail, Green ([2]; 125 g ai/ha) | Plant response rating, Ragweed ([3]; 31 g ai/ha) | Plant response rating, Ragweed ([3]; 125 g ai/ha) | Plant response rating, Sedge, Umbrella [4] | Plant response rating, Barnyardgrass ([5]; 31 g ai/ha) | Plant response rating, Barnyardgrass ([5]; 125 g ai/ha) | Plant response rating, Wheat ([6]; 31 g ai/ha) | Plant response rating, Wheat ([6]; 125 g ai/ha) | Plant response rating, Rice (rice (Oryza sativa)) | Plant response rating, Blackgrass ([7]; 31 g ai/ha) | Plant response rating, Blackgrass ([7]; 125 g ai/ha) | Plant response rating, Ducksalad [8] | Plant response rating, Pigweed ([9]; 31 g ai/ha) | Plant response rating, Pigweed ([9]; 125 g ai/ha) | Plant response rating, Galium ([10]; 31 g ai/ha) | Plant response rating, Galium ([10]; 125 g ai/ha) | Plant response rating, Ryegrass, Italian ([11]; 31 g ai/ha) | also measured |
| --- | --- | --- | --- | --- | --- | --- | --- | --- | --- | --- | --- | --- | --- | --- | --- | --- | --- | --- | --- | --- | --- |
| CC(=O)[C@@]1(C(=O)Nc2cccc(F)c2F)C(=O)N(C)C[C@@H]1c1ccc(C(F)(F)F)cc1 [Compound 1, (3S,4R)-3-acetyl-N-(2,3-difluorophenyl)-1-methyl-2-oxo-4-[4-(trifluoromethyl)phenyl]-3-pyrrolidinecarboxamide] | 60 | 80 | 90 | 90 | 20 | 70 | 0 | 80 | 90 | 20 | 50 | 0 | 0 | 50 | 90 | 50 | 90 | 50 | 60 | 30 | Plant response rating, Ryegrass, Italian ([11]; 125 g ai/ha): 60; Plant response rating, Foxtail, Green ([12]; 31 g ai/ha): 50; Plant response rating, Foxtail, Green ([12]; 125 g ai/ha): 90; Plant response rating, Kochia (kochia (Kochia scoparia) [13]; 31 g ai/ha): 40; Plant response rating, Kochia (kochia (Kochia scoparia) [13]; 125 g ai/ha): 80; Plant response rating, Corn (corn (Zea mays); 31 g ai/ha): 20; Plant response rating, Corn (corn (Zea mays); 125 g ai/ha): 80; Plant response rating, Kochia (kochia (Kochia scoparia) [14]; 31 g ai/ha): 20; Plant response rating, Kochia (kochia (Kochia scoparia) [14]; 125 g ai/ha): 70; Plant response rating, Barnyardgrass [15]: 70; Plant response rating, Barnyardgrass ([16]; 31 g ai/ha): 70; Plant response rating, Barnyardgrass ([16]; 125 g ai/ha): 90; Plant response rating, Ragweed ([17]; 31 g ai/ha): 0; Plant response rating, Ragweed ([17]; 125 g ai/ha): 40; Plant response rating, Pigweed ([18]; 31 g ai/ha): 30; Plant response rating, Pigweed ([18]; 125 g ai/ha): 80 |
| CC(=O)OC[C@@]1(C(=O)Nc2cccc(F)c2F)C(=O)N(C)C[C@@H]1c1ccc(C(F)(F)F)cc1 [Compound 2, (3S,4R)-3-[(acetyloxy)methyl]-N-(2,3-difluorophenyl)-1-methyl-2-oxo-4-[4-(trifluoromethyl)phenyl]-3-pyrrolidincarboxamide] | 20 | 50 | 60 | 90 | 0 | 30 | 0 | 50 | 80 | 0 | 20 | 30 | 0 | 10 | 95 | 20 | 80 | 0 | 40 | 0 | Plant response rating, Ryegrass, Italian ([11]; 125 g ai/ha): 10; Plant response rating, Foxtail, Green ([12]; 31 g ai/ha): 20; Plant response rating, Foxtail, Green ([12]; 125 g ai/ha): 70; Plant response rating, Kochia (kochia (Kochia scoparia) [13]; 31 g ai/ha): 20; Plant response rating, Kochia (kochia (Kochia scoparia) [13]; 125 g ai/ha): 50; Plant response rating, Corn (corn (Zea mays); 31 g ai/ha): 0; Plant response rating, Corn (corn (Zea mays); 125 g ai/ha): 40; Plant response rating, Kochia (kochia (Kochia scoparia) [14]; 31 g ai/ha): 0; Plant response rating, Kochia (kochia (Kochia scoparia) [14]; 125 g ai/ha): 40; Plant response rating, Barnyardgrass [15]: 65; Plant response rating, Barnyardgrass ([16]; 31 g ai/ha): 0; Plant response rating, Barnyardgrass ([16]; 125 g ai/ha): 50; Plant response rating, Ragweed ([17]; 31 g ai/ha): 0; Plant response rating, Ragweed ([17]; 125 g ai/ha): 40; Plant response rating, Pigweed ([18]; 31 g ai/ha): 20; Plant response rating, Pigweed ([18]; 125 g ai/ha): 40 |
| CN1C[C@H](c2ccc(C(F)(F)F)cc2)[C@](CO)(C(=O)Nc2cccc(F)c2F)C1=O [Compound 4, (3S,4R)—N-(2,3-difluorophenyl)-3-(hydroxymethyl)-1-methyl-2-oxo-4-[4-(trifluoromethyl)phenyl]-3-pyrrolidinecarboxamide] | 0 | 50 | 50 | 90 | 0 | 0 | 0 | 30 | 90 | 0 | 20 | 0 | 0 | 40 | 95 | 0 | 90 | 20 | 40 | 0 | Plant response rating, Ryegrass, Italian ([11]; 125 g ai/ha): 50; Plant response rating, Foxtail, Green ([12]; 31 g ai/ha): 10; Plant response rating, Foxtail, Green ([12]; 125 g ai/ha): 60; Plant response rating, Kochia (kochia (Kochia scoparia) [13]; 31 g ai/ha): 0; Plant response rating, Kochia (kochia (Kochia scoparia) [13]; 125 g ai/ha): 40; Plant response rating, Corn (corn (Zea mays); 31 g ai/ha): 0; Plant response rating, Corn (corn (Zea mays); 125 g ai/ha): 50; Plant response rating, Kochia (kochia (Kochia scoparia) [14]; 31 g ai/ha): 0; Plant response rating, Kochia (kochia (Kochia scoparia) [14]; 125 g ai/ha): 60; Plant response rating, Barnyardgrass [15]: 50; Plant response rating, Barnyardgrass ([16]; 31 g ai/ha): 0; Plant response rating, Barnyardgrass ([16]; 125 g ai/ha): 60; Plant response rating, Ragweed ([17]; 31 g ai/ha): 0; Plant response rating, Ragweed ([17]; 125 g ai/ha): 0; Plant response rating, Pigweed ([18]; 31 g ai/ha): 30; Plant response rating, Pigweed ([18]; 125 g ai/ha): 70 |
| CN1C[C@H](c2ccc(C(F)(F)F)cc2)[C@@](CO)(C(=O)Nc2cccc(F)c2F)C1=O [Compound 5, (3R,4R)—N-(2,3-difluorophenyl)-3-(hydroxymethyl)-1-methyl-2-oxo-4-[4-(trifluoromethyl)phenyl]-3-pyrrolidinecarboxamide] | 20 | 50 | 70 | 90 | 0 | 60 | 0 | 80 | 90 | 0 | 30 | 25 | 0 | 30 | 90 | 0 | 60 | 40 | 40 | 10 | Plant response rating, Ryegrass, Italian ([11]; 125 g ai/ha): 80; Plant response rating, Foxtail, Green ([12]; 31 g ai/ha): 30; Plant response rating, Foxtail, Green ([12]; 125 g ai/ha): 80; Plant response rating, Kochia (kochia (Kochia scoparia) [13]; 31 g ai/ha): 0; Plant response rating, Kochia (kochia (Kochia scoparia) [13]; 125 g ai/ha): 60; Plant response rating, Corn (corn (Zea mays); 31 g ai/ha): 0; Plant response rating, Corn (corn (Zea mays); 125 g ai/ha): 60; Plant response rating, Kochia (kochia (Kochia scoparia) [14]; 31 g ai/ha): 30; Plant response rating, Kochia (kochia (Kochia scoparia) [14]; 125 g ai/ha): 70; Plant response rating, Barnyardgrass [15]: 65; Plant response rating, Barnyardgrass ([16]; 31 g ai/ha): 30; Plant response rating, Barnyardgrass ([16]; 125 g ai/ha): 80; Plant response rating, Ragweed ([17]; 31 g ai/ha): 0; Plant response rating, Ragweed ([17]; 125 g ai/ha): 40; Plant response rating, Pigweed ([18]; 31 g ai/ha): 30; Plant response rating, Pigweed ([18]; 125 g ai/ha): 50 |
